# Values of other authors in US20110064813A1, “USE OF SALSALATE WITH OR WITHOUT CAFFEINE AND WITH OR WITHOUT OMEGA 3, AND OTHER PHARMACEUTICAL COMPOUNDS IN A DISTINCTIVELY UNIQUE NANO-PARTICULATE CAPSULE AND TABLET” (priority 2009, published 2011).
# Tests used:
# [1] = system: HIV-infected patients
# [2] = administered orally
# [3] = compared with aspirin and other NSAIDS
# [4] = system: patients presenting with Type 2 Diabetes (T2D); conditions: tablet forms of salsalate; T2D patients and obese patients
# [5] = acidic conditions
# [6] = system: pro-thrombin time; conditions: unlike Aspirin
# [7] = system: patients with rheumatoid arthritis; conditions: compared with diclofenac
smiles,measurement,setting,value
"O=C(Oc1ccccc1C(=O)O)c1ccccc1O [salsalate, 2-(2-Hydroxybenzoyl)oxybenzoic acid]",salsalate induced liver dysfunction,[1]; HIV patients,a significant number of HIV patients experienced salsalate induced liver dysfunction
same,endothelial function,[1]; HIV-infected patients,improved endothelial function
same,time to full benefit (plasma salicylate steady state),[2],3 to 4 days
same,fecal gastrointestinal blood loss,[3],less fecal gastrointestinal blood loss than aspirin
same,lowering of glucose levels,[4],experienced efficacy in the lowering of glucose levels
same,solubility,[5],nearly insoluble
same,inhibition of pro-thrombin time,[6],does not inhibit
same,clinical efficacy,[7],equal to diclofenac
